Patent publication US20180000085A1, “USE OF PICOLINAMIDE COMPOUNDS WITH FUNGICIDAL ACTIVITY” (DOW AGROSCIENCES LLC, priority 2014, published 2018)

Columns and labels:
Type in all cases: in vivo
Phakopsora pachyrhizi = test: Asian soybean rust (PHAKPA) disease control; set-up: key: A: > 80; B: ≤ 80; C: Not Tested; D: No Activity Observed in the Reported Assay; conditions: 25 ppm; for PHAKPA disease control, 1DP: 1 Day Protectant; for PHAKPA disease control, 3DC: 3 Day Curative
Zymoseptoria tritici = test: Leaf blotch of wheat (SEPTTR) disease control on wheat seedlings; set-up: key to SEPTTR 1DP, HV activity at 100 ppm (% control rating) / SEPTTR 3DC, HV activity at 100 ppm (% control rating) / SEPTTR disease control, 1DP / SEPTTR disease control, 3DC / SEPTTR 1DP disease control rating, HV activity / SEPTTR 3DC disease control rating, HV activity / SEPTTR 3DC, LV activity at 125.1 g/H (% Control rating) / SEPTTR 1DP, LV activity at 125.1 g/H (% Control rating) / SEPTTR 1DP disease control rating, LV activity at 125.1 g/H / SEPTTR 3DC disease control rating, LV activity at 125.1 g/H / SEPTTR 3DC disease control rating, HV activity at 100 ppm / SEPTTR 1DP disease control rating, HV activity at 100 ppm / HV activity at 100 ppm SEPTTR 3DC (disease control rating) / HV activity at 100 ppm SEPTTR 1DP (disease control rating) / LV activity at 125.1 g/H SEPTTR 1DP (disease control rating) / LV activity at 125.1 g/H SEPTTR 3DC (disease control rating): A: > 80; B: ≤ 80; C: Not Tested; D: No Activity Observed in the Reported Assay; conditions: for SEPTTR 1DP, LV activity at 125.1 g/H (% Control rating) / SEPTTR 3DC, LV activity at 125.1 g/H (% Control rating) / SEPTTR 1DP disease control rating, LV activity at 125.1 g/H / SEPTTR 3DC disease control rating, LV activity at 125.1 g/H: low volume application; for SEPTTR 1DP disease control rating, LV activity at 125.1 g/H: 1 day protectant; for SEPTTR 3DC disease control rating, LV activity at 125.1 g/H: 3 day curative
Puccinia triticina = test: Wheat brown rust (PUCCRT) disease control on wheat seedlings; conditions: for PUCCRT 1DP, LV activity at 125.1 g/H (% Control rating) / PUCCRT 3DC, LV activity at 125.1 g/H (% Control rating) / PUCCRT 1DP disease control rating, LV activity at 125.1 g/H / PUCCRT 3DC disease control rating, LV activity at 125.1 g/H: low volume application; for PUCCRT 1DP disease control rating, LV activity at 125.1 g/H: 1 day protectant; for PUCCRT 3DC disease control rating, LV activity at 125.1 g/H: 3 day curative

SMILES | PHAKPA disease control, 1DP (Phakopsora pachyrhizi) | PHAKPA disease control, 3DC (Phakopsora pachyrhizi) | SEPTTR 1DP, LV activity at 125.1 g/H (% Control rating) (Zymoseptoria tritici; 1 Day Protectant) | SEPTTR 3DC, LV activity at 125.1 g/H (% Control rating) (Zymoseptoria tritici; 3 Day Curative) | PUCCRT 1DP, LV activity at 125.1 g/H (% Control rating) (Puccinia triticina; 1 Day Protectant) | PUCCRT 3DC, LV activity at 125.1 g/H (% Control rating) (Puccinia triticina; 3 Day Curative) | SEPTTR 1DP disease control rating, HV activity (Zymoseptoria tritici; HV application at 100 ppm, 1 Day Protectant, wheat leaf blotch) | SEPTTR 3DC disease control rating, HV activity (Zymoseptoria tritici; HV application at 100 ppm, 3 Day Curative, wheat leaf blotch) | PUCCRT 1DP disease control rating, HV activity (Puccinia triticina; HV application at 100 ppm, 1 Day Protectant, wheat brown rust) | PUCCRT 3DC disease control rating, HV activity (Puccinia triticina; HV application at 100 ppm, 3 Day Curative, wheat brown rust) | SEPTTR 1DP disease control rating, LV activity at 125.1 g/H (Zymoseptoria tritici) | SEPTTR 3DC disease control rating, LV activity at 125.1 g/H (Zymoseptoria tritici) | PUCCRT 1DP disease control rating, LV activity at 125.1 g/H (Puccinia triticina) | PUCCRT 3DC disease control rating, LV activity at 125.1 g/H (Puccinia triticina)
CCC(CC)[C@@H](Oc1ccc(F)cc1)[C@H](C)OC(=O)[C@H](C)NC(=O)c1nccc(OC)c1OC(C)=O [Cmpd 598] | A (> 80) | B (≤ 80) | A (> 80) | A (> 80) | A (> 80) | A (> 80) | – | – | – | – | – | – | – | –
COc1ccnc(C(=O)N[C@@H](C)C(=O)O[C@@H](C)[C@H](Oc2ccccc2)c2ccccc2)c1OC(C)=O [Cmpd 501] | B (≤ 80) | B (≤ 80) | A (> 80) | A (> 80) | A (> 80) | A (> 80) | – | – | – | – | – | – | – | –
CCC(CC)[C@@H](Oc1ccccc1)[C@H](C)OC(=O)CNC(=O)c1nccc(OC)c1OC(C)=O [Cmpd 480] | B (≤ 80) | B (≤ 80) | B (≤ 80) | B (≤ 80) | A (> 80) | A (> 80) | – | – | – | – | – | – | – | –
COc1ccnc(C(=O)N[C@@H](C)C(=O)O[C@@H](C)[C@H](Oc2cccc3ccccc23)C(C)C)c1OCOC(C)=O [Cmpd 621] | A (> 80) | D | B (≤ 80) | A (> 80) | A (> 80) | A (> 80) | – | – | – | – | – | – | – | –
COc1ccnc(C(=O)N[C@@H](C)C(=O)O[C@@H](C)[C@H](Oc2ccccc2)C(C)C)c1O [Cmpd 304] | D | B (≤ 80) | – | – | – | – | A (> 80) | A (> 80) | A (> 80) | A (> 80) | – | – | – | –
COc1ccnc(C(=O)N[C@@H](C)C(=O)O[C@@H](C)[C@@H](OC)c2ccccc2)c1OCOC(C)=O [Cmpd 886] | B (≤ 80) | B (≤ 80) | – | – | – | – | – | – | – | – | D | A (> 80) | A (> 80) | A (> 80)
CC[C@@H](CCC(C)C)[C@H](Oc1ccccc1)[C@H](C)OC(=O)[C@H](C)NC(=O)c1nccc(OC)c1OCOC(C)=O [Cmpd 502] | A (> 80) | B (≤ 80) | A (> 80) | A (> 80) | A (> 80) | A (> 80) | – | – | – | – | – | – | – | –
CCC(CC)[C@@H](OCC(C)C)[C@H](C)OC(=O)[C@H](C)NC(=O)c1nccc(OC)c1OCOC(C)=O [Cmpd 554] | A (> 80) | B (≤ 80) | B (≤ 80) | A (> 80) | A (> 80) | A (> 80) | – | – | – | – | – | – | – | –
COc1ccnc(C(=O)N[C@@H](C)C(=O)O[C@@H](C)[C@H](OCC2CC2)c2cccc(-c3ccccc3)c2)c1OCOC(C)=O [Cmpd 873] | A (> 80) | B (≤ 80) | – | – | – | – | – | – | – | – | B (≤ 80) | A (> 80) | A (> 80) | A (> 80)
